ChEMBL document CHEMBL1151564, “Arylacetamide kappa-selective opioid ligands” (Bioorg Med Chem Lett, 1997)

Tests used:
Mu-type opioid receptor = Mu-type opioid receptor (Cavia porcellus, UniProt P97266); experiment: Compound was evaluated for the inhibition of Opioid receptor mu 1 binding to guinea pig brain membranes, using [3H]- DAMGO as radioligand
[1] = molecular target: Kappa-type opioid receptor (Cavia porcellus, UniProt P41144); experiment: Compound was evaluated for the inhibition of Opioid receptor kappa1 binding to guinea pig brain membranes, using 1 nM [3H]- U69,593 as radioligand
[2] = Specific binding was evaluated by Phycoerythrin fluorescent labeling of R1EGO mouse thymoma cells; type: functional
[3] = Total binding was evaluated by Phycoerythrin fluorescent labeling of R1EGO mouse thymoma cells; type: functional
[4] = Percent specific binding was evaluated by Phycoerythrin fluorescent labeling of R1EGO mouse thymoma cells; type: functional
[5] = Nonspecific binding was evaluated by Phycoerythrin fluorescent labeling of R1EGO mouse thymoma cells; type: functional

Chain of Kappa-type opioid receptor (P41144 whole entry): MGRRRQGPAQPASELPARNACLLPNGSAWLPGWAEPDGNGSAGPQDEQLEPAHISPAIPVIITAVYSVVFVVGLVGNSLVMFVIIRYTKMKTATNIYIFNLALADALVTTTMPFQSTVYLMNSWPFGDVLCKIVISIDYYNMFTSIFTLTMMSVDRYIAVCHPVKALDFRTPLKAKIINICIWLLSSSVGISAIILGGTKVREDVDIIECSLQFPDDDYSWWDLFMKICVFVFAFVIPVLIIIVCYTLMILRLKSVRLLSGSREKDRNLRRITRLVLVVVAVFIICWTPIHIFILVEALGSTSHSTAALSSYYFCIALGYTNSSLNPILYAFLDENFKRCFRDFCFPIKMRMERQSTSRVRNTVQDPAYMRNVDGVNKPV
Chain of Mu-type opioid receptor (P97266 whole entry): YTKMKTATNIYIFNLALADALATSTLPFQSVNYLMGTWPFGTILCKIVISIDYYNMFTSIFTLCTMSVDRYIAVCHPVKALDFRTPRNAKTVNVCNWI

| SMILES | Ki (Mu-type opioid receptor) [nM] | Ki [1] [nM] | Specific binding [2] | Total binding [3] | Binding [4] [%] | Non-specific binding [5] |
| --- | --- | --- | --- | --- | --- | --- |
| CN(C(=O)Cc1ccc(Cl)c(Cl)c1)C(CN1CCCC1)c1cccc(N/C(S)=N/c2ccc(-c3c4ccc(=O)cc-4oc4cc(O)ccc34)c(C(=O)O)c2)c1 (stereo unspecified) | 176 | 8.2 |  |  |  |  |
| CN(C(=O)Cc1ccc(Cl)c(Cl)c1)[C@H](CN1CCCC1)c1cccc(N/C(S)=N/c2ccc(-c3c4ccc(=O)cc-4oc4cc(O)ccc34)c(C(=O)O)c2)c1 | 98 | 1.4 | 57 | 64 | 91 | 7 |
| CN(C(=O)Cc1ccc(Cl)c(Cl)c1)[C@@H](CN1CCCC1)c1cccc(N/C(S)=N/c2ccc(-c3c4ccc(=O)cc-4oc4cc(O)ccc34)c(C(=O)O)c2)c1 | 1190 | 139 |  | 12 |  | -5 |
| CC(=O)Nc1cccc([C@H](CN2CCCC2)N(C)C(=O)Cc2ccc(Cl)c(Cl)c2)c1 | 1040 | 17.5 |  |  |  |  |
| CC(=O)Nc1cccc([C@@H](CN2CCCC2)N(C)C(=O)Cc2ccc(Cl)c(Cl)c2)c1 | 8.37 | 0.0855 |  |  |  |  |
